# Experimental data: ChEMBL document CHEMBL1145873, “Acylsulfonamide-containing PTP1B inhibitors designed to mimic an enzyme-bound water of hydration” (Bioorg Med Chem Lett, 2003)
# Biological target: T1, Tyrosine-protein phosphatase non-receptor type 1 (Homo sapiens, UniProt P18031)
# T1 sequence (P18031 whole entry): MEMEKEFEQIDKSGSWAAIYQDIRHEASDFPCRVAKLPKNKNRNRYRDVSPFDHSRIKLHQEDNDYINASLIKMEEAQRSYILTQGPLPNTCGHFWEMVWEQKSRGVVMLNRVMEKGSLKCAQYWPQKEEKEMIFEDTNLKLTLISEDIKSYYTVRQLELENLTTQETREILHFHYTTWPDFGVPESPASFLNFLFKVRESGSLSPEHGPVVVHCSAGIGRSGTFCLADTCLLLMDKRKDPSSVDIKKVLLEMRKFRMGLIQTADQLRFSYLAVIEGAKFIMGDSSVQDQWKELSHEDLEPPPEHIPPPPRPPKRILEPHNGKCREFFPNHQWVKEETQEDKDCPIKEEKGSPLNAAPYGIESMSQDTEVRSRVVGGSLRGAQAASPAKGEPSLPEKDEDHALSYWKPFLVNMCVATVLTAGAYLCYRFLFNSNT
# Test: Binding affinity towards recombinant human Protein-tyrosine phosphatase 1B was determined
row,Compound,Ki [µM]
1,CS(=O)(=O)NC(=O)c1ccc2cc(C(F)(F)P(=O)(O)O)ccc2c1,17

# Biological target: T1, Tyrosine-protein phosphatase non-receptor type 1
# Test: Inhibitory concentration towards recombinant human Protein-tyrosine phosphatase 1B was determined
row,Compound,IC50 [µM]
1,C[C@@H]1CCC[C@H](C)N1NC(=O)c1ccc(Cl)c(S(=O)(=O)NC(=O)c2ccc3cc(C(F)(F)P(=O)(O)O)ccc3c2)c1,19
2,O=C(NS(=O)(=O)Cc1ccccc1)c1ccc2cc(C(F)(F)P(=O)(O)O)ccc2c1,24
3,O=C(NS(=O)(=O)c1cc(C2(O)NC(=O)c3ccccc32)ccc1Cl)c1ccc2cc(C(F)(F)P(=O)(O)O)ccc2c1 (stereo not given),25
4,O=C(NS(=O)(=O)c1ccccc1)c1ccc2cc(C(F)(F)P(=O)(O)O)ccc2c1,30
5,CS(=O)(=O)NC(=O)c1ccc2cc(C(F)(F)P(=O)(O)O)ccc2c1,41
6,CCN1CCCC1CNC(=O)c1cc(S(=O)(=O)NC(=O)c2ccc3cc(C(F)(F)P(=O)(O)O)ccc3c2)ccc1OC (stereo not given),46
7,CC1Cc2ccccc2N1NC(=O)c1ccc(Cl)c(S(=O)(=O)NC(=O)c2ccc3cc(C(F)(F)P(=O)(O)O)ccc3c2)c1 (stereo not given),20
8,CCCCCCCCCCCCCCCCOc1ccc(S(=O)(=O)NC(=O)c2ccc3cc(C(F)(F)P(=O)(O)O)ccc3c2)cc1[N+](=O)[O-],0.35
9,CCCCCCCCCC(=O)Nc1ccc(S(=O)(=O)NC(=O)c2ccc3cc(C(F)(F)P(=O)(O)O)ccc3c2)cc1,18
